These results are taken from the supplement of paper PMC8837787.

Where only a bound is given, the exact number is not on record here.

The subject of this assay is Saccharomyces cerevisiae ABC16-Green Monster. Nature of the assay: growth inhibition at single dose (up to 150 µM), below the 70% cut-off for dose-response; higher = more potent. The following applies: 18 h; 30 °C; YPD. Summed up:
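The entry is percent growth inhibition of drug-sensitive S. cerevisiae ABC16-Green Monster cells. After overnight growth in YPD at 30 °C, cells were diluted to OD600 0.1–0.2 and exposed to each library compound at 150 µM in 200 µl per well, in biological duplicates with untreated cultures beside them, and OD600 was read at 0 h and after 18 h at 30 °C. Any compound under 70% in both replicates was not carried to dose-response.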

Turning to `Cc1ccc(C(NCC(=O)Nc2sccc2C(N)=O)c2cccs2)cc1` (stereo not drawn), the “growth inhibition at single dose” value was less than 70%. As for `Cc1nc2ccccc2c(O)c1CC=C(Cl)Cl`, the “growth inhibition at single dose” value was less than 70%. To `Cc1nc(NCc2ccco2)c2c(C)c(C)sc2n1` belongs less than 70%; to `CN(C)c1ccc(CNc2ncnc3ccccc23)cc1`, less than 70%; to `CCN1CCN(c2cc(C)c3cc(NC(=O)c4ccc(OC)c(OC)c4)ccc3n2)CC1`, less than 70%.

For the molecule `COc1cc(C(=O)ON=C(N)Cc2cccc3ccccc23)cc(OC)c1OC`, the “growth inhibition at single dose” value was less than 70%.

For `Cc1ccc(NC(=O)c2[nH]nc3c2CCCC3)cc1Cl`, the “growth inhibition at single dose” value was less than 70%. Consider `COc1cccc(Nc2nc(-c3ccc(CCC(C)NC(C)=O)cc3)cs2)c1` (stereo not drawn), for which the “growth inhibition at single dose” value was less than 70%. With `CCOc1ccccc1C(=O)Nc1cccc(-c2nc3ncccn3c2C)c1`, the “growth inhibition at single dose” value was less than 70%. For `CCC(C)NC(=O)c1ccc(NC(=O)C2(c3ccccc3)CCCC2)cc1` (stereo not drawn), the “growth inhibition at single dose” value was less than 70%. For `COc1ccc(NC(=O)C2c3ccccc3C(=O)N(CC(C)C)C2c2cccs2)cc1Cl` (stereo not drawn) the value was less than 70%; for `CCOC(=O)c1noc(N)c1-c1ccccc1`, less than 70%. With `CC(C)(C(=O)Nc1ccc(F)cc1)n1cc(-c2ccccc2F)cn1`, the “growth inhibition at single dose” value was less than 70%. With `O=c1nc(-c2ccccn2)[nH]c2scc(-c3ccccc3)c12`, the “growth inhibition at single dose” value is less than 70%. As to `CCSc1nccc(-c2ccc3c(c2)CCC(C)(C)O3)n1`, the “growth inhibition at single dose” value is less than 70%.

As for `O=C(Nc1ncccc1O)c1ccc(S(=O)(=O)NCCc2cccs2)cc1`, the “growth inhibition at single dose” value was less than 70%.

As for `Cc1cc(NC(=O)c2ccc(S(=O)(=O)N(Cc3ccccc3)C(C)C)cc2)no1`, the “growth inhibition at single dose” value was less than 70%. As to `O=C(Nc1ncccc1O)c1ccc(-n2cnc3ccccc32)cc1`, the “growth inhibition at single dose” value was less than 70%. For `CNc1nnc(Sc2cnn(-c3ccccc3)c(=O)c2Cl)s1` the value was less than 70%; for `FC(F)(F)c1nc(NCCNc2ccccn2)c2ccccc2n1`, less than 70%. Take `O=C(NC1CCN(Cc2ccccc2)CC1)c1cc(-c2ccncc2)nc2ccc(Cl)cc12`: the “growth inhibition at single dose” value was less than 70%.

Regarding `CN(CCO)c1ccc(C(=O)c2ccc(N(C)CCO)cc2)cc1`, the “growth inhibition at single dose” value was less than 70%. Regarding `Cc1cc(=O)nc(N/N=C/c2c(C)nn(-c3ccccc3Cl)c2Cl)[nH]1`, the “growth inhibition at single dose” value is less than 70%. With `COc1ccc(N(CCCN2C(=O)c3cccc4cccc(c34)C2=O)C(=O)c2ccccc2Cl)cc1`, the “growth inhibition at single dose” value was less than 70%.

For the molecule `O=C(C1CCCCC1)N1CC(=O)N2CCc3ccccc3C2C1` (stereo not drawn), the “growth inhibition at single dose” value was less than 70%.

With `CN(C)c1cc(CNC(=O)c2cc3c(F)cccc3s2)ccn1`, the “growth inhibition at single dose” value is less than 70%. For `Cc1cc(Cl)ccc1NC(=O)CCc1ccc(S(=O)(=O)NCC(C)C)cc1` the value was less than 70%. For `C=c1ccccc1=C1NN=C(Nc2ccc(F)c(F)c2F)O1` the value was less than 70%; for `COC(=O)c1c(C)[nH]c(C2=NNC(=NC3CC3)SC2)c1C`, less than 70%; for `COc1ccc(C2=NN(C3CCCCCC3)C(=O)C2(C)C)cc1OCCCCOc1ccc(-c2nn[nH]n2)cc1`, less than 70%. Consider `CCOC(=O)c1sc(N)c(C#N)c1COC(=O)c1c(CC)noc1C`, for which the “growth inhibition at single dose” value was less than 70%. As for `Cn1c(=O)c2cc(C(=O)NCCCN3CCCCCC3)sc2c2ccccc21`, the “growth inhibition at single dose” value was less than 70%. To `COC(=O)c1ccc(F)cc1NS(=O)(=O)c1cccc(-c2cnn(Cc3ccccc3)c2)c1` belongs less than 70%; to `Cc1ccc2c(c1)nc1n2CN(CCN2CCOCC2)CN1Cc1ccccc1`, less than 70%; to `CCc1ccc(C(NCc2nc(N)nc(N(C)C)n2)C(C)C)cc1` (stereo not drawn), less than 70%. For the molecule `COc1ccc(C(=O)NC(c2ccccc2Cl)c2cc(Cl)c3cccnc3c2O)cc1` (stereo not drawn), the “growth inhibition at single dose” value was less than 70%. For `FC(F)(F)c1nc(N2CCN(c3ccncc3)CC2)c2ccccc2n1`, the “growth inhibition at single dose” value was less than 70%.

As for `Cc1ccc(-c2noc(CN3CCN(c4cc(C)nc(N)n4)CC3)n2)cc1`, the “growth inhibition at single dose” value was less than 70%. For `Cn1c(N)c(C(=O)COC(=O)C2(c3ccc(Cl)cc3)CCCC2)c(=O)n(C)c1=O` the value was less than 70%. Turning to `COc1ccc(-n2nc(C)c3c2NC(=O)CC3c2ccc3c(c2)OCO3)cc1` (stereo not drawn), the “growth inhibition at single dose” value is less than 70%. To `Cc1ccc2nc(C)c(-c3ccn(Cc4ccccc4)n3)n2c1` belongs less than 70%; to `Cc1cccc(Nc2nc(N)c3ccccc3n2)c1`, less than 70%. To `Cc1cc(C)cc(Nc2cc(C)nc3nc(C(F)(F)F)nn23)c1` belongs less than 70%.

For the molecule `OC(c1cn2cc(-c3ccccc3)nc2s1)(C(F)(F)F)C(F)(F)F`, the “growth inhibition at single dose” value is less than 70%. For the molecule `CCOc1ccc2c(c1)CN(Cc1ccc(Cl)cc1)CO2`, the “growth inhibition at single dose” value is less than 70%. Turning to `O=C(Cc1ccccc1)NC(c1ccc(Cl)cc1)c1c(O)ccc2ccccc12` (stereo not drawn), the “growth inhibition at single dose” value was less than 70%. Regarding `COc1cccc(Cn2c(Oc3ccccc3)nc3c2c(=O)n(C)c(=O)n3C)c1`, the “growth inhibition at single dose” value was less than 70%.

On to `COc1ccc(NC(=O)C2c3ccccc3C(=O)N(CC(C)C)C2c2cccs2)cc1` (stereo not drawn), for which the “growth inhibition at single dose” value was less than 70%. `CCN(CC)CCNc1ccnc2cc(Cl)ccc12`: the “growth inhibition at single dose” value is less than 70%.

With `CC(C)(C)C(=O)Nc1ccc(-c2nc3ncccc3o2)c(Cl)c1`, the “growth inhibition at single dose” value is less than 70%. As to `O=C(Nc1nc(-c2ccccn2)cs1)c1ccc(-n2cncn2)cc1`, the “growth inhibition at single dose” value was less than 70%. For `Cc1cc2nnc(-c3ccc(C(F)(F)F)cc3)n2[nH]1`, the “growth inhibition at single dose” value is less than 70%.

For `CCCCCCCCCCCCCCCCOP(=O)([O-])OCC[N+](C)(C)C`, the “growth inhibition at single dose” value is less than 70%.

As to `COc1ccc(-c2cn3c(C(=O)Nc4ccccc4Cl)c(-c4ccccc4)c4c3n2CCCC4)cc1`, the “growth inhibition at single dose” value was less than 70%. To `Cc1cc(C=C2SC(=Nc3ccccc3)N(C3CCCC3)C2=O)c(C)n1-c1ccc(Cl)cc1` belongs less than 70%; to `CN(C)S(=O)(=O)c1cccc(C(=O)Nc2cnc3ccccc3c2)c1`, less than 70%.

As to `CC(=O)Nc1nnc(SCc2c(C)cc(C(C)(C)C)cc2C)s1`, the “growth inhibition at single dose” value was less than 70%. Turning to `COc1ccccc1CNC(=O)C1c2ccccc2C(=O)N(CC(C)C)C1c1cccs1` (stereo not drawn), the “growth inhibition at single dose” value is less than 70%. As to `Cc1ccc(O)c(C(=O)NCCc2ccc3c(c2)OCCO3)c1`, the “growth inhibition at single dose” value was less than 70%. Regarding `Nc1ncnc2c1ncn2[C@@H]1O[C@H](COS(=O)(=O)NC(=O)c2ccccc2O)[C@@H](O)[C@H]1O`, the “growth inhibition at single dose” value was less than 70%. `CCOc1ccc(S(=O)(=O)CC2=NCCc3cc(OC)c(OC)cc32)cc1`: the “growth inhibition at single dose” value was less than 70%. `O=C(Nc1cccc([N+](=O)[O-])c1)c1[nH]nc2ccccc12`: the “growth inhibition at single dose” value was less than 70%. For `COc1ccc(-c2cnc3cnc(-c4cccc(OC(C)C)c4)cn23)cc1` the value was less than 70%. To `Oc1c2c(nc3cc(-c4ccccc4)nn13)CCCC2` belongs less than 70%; to `Cc1ccc(C(=O)OC(C)C(=O)N2CCCC2)cc1S(=O)(=O)N1CCCCC1` (stereo not drawn), less than 70%; to `COc1cccc(-c2nn(C)c3sc(C(=O)NCCN4CCN(c5ccccc5F)CC4)cc23)c1`, less than 70%. As for `C=CCn1c(C)cc(C(=O)CSc2nc3ccccc3s2)c1C`, the “growth inhibition at single dose” value is less than 70%. `CSc1nc2ccc(NC(=O)c3cn4ccccc4n3)cc2s1`: the “growth inhibition at single dose” value is less than 70%. In the case of `O=C(CCC1CCCCC1)Nc1cccc(-c2nnc(-c3ccco3)o2)c1`, the “growth inhibition at single dose” value was less than 70%.

On to `CCCN(CCC)CCCNC(=O)c1cc2c(-c3ccc(OC)c(OC)c3)nn(C)c2s1`, for which the “growth inhibition at single dose” value is less than 70%.

Consider `COc1cccc(O)c1CN1CCC2(CCCN(Cc3ccc(F)cc3)C2)C1` (stereo not drawn), for which the “growth inhibition at single dose” value is less than 70%. In the case of `CCc1ccc([C@@H]2C[C@H](C(F)(F)F)n3ncc(C(=O)NCc4ccc(OC)cc4)c3N2)cc1`, the “growth inhibition at single dose” value is less than 70%. Take `Cc1nc(-c2ccc(CCNc3ncnc4sccc34)cc2)cs1`: the “growth inhibition at single dose” value was less than 70%.

Take `CCOc1cc2c(cc1OCC)C(c1cc(Cl)c(O)c(OCC)c1)NCC2` (stereo not drawn): the “growth inhibition at single dose” value is less than 70%. Consider `FC(F)(F)c1cccc(CNC2CCN(CCc3ccccc3)CC2)c1`, for which the “growth inhibition at single dose” value is less than 70%.

For `O=C(Nc1cc(Cl)cc(Cl)c1)Nc1cc(Cl)cc(Cl)c1`, the “growth inhibition at single dose” value is less than 70%. `COc1nc2ccc(Br)cc2cc1[C@@H](c1ccccc1)[C@@](O)(CCN(C)C)c1cccc2ccccc12`: the “growth inhibition at single dose” value was less than 70%. As to `Cc1sc2ncnc(Sc3nc4ccccc4[nH]3)c2c1C`, the “growth inhibition at single dose” value was less than 70%. In the case of `CC1(COc2ccc(N3CCC(Oc4ccc(OC(F)(F)F)cc4)CC3)cc2)Cn2cc([N+](=O)[O-])nc2O1` (stereo not drawn), the “growth inhibition at single dose” value is less than 70%. As for `CCOc1ccc(-c2nonc2NC(=O)c2cccc(C)c2)cc1OCC`, the “growth inhibition at single dose” value is less than 70%.

Consider `CCCc1cc(NCCN(C)C)n2ncc(-c3ccccc3)c2n1`, for which the “growth inhibition at single dose” value was less than 70%. Turning to `CC(C)N=c1cc2n(-c3ccc(Cl)cc3)c3ccccc3nc-2cc1Nc1ccc(Cl)cc1`, the “growth inhibition at single dose” value is less than 70%. Consider `O=C(Nc1ccc(F)c(Cl)c1)Nc1ccc(Cl)c(Cl)c1`, for which the “growth inhibition at single dose” value was less than 70%.
